The values below are quoted from earlier work in patent publication US6271232A, “Collagenase-1 and stromelysin-1 inhibitors, pharmaceutical compositions comprising same and methods of their use” (Affymax Technologies, N.V., priority 1999, dated 2001).

The data set has as its target rabbit bone proteoglycanase. The following applies: Delaisse et al. (1985).

For orientation: IC50 means the concentration at which inhibition is half-maximal. For `CNC(=O)[C@H](Cc1ccc(OC)cc1)NC(=O)[C@H](CC(C)C)NC(CCNC(=O)OCc1ccccc1)C(=O)O` (stereo partly drawn) [N-[3-(benzyloxy-carbonyl)amino-1-carboxy-n-propyl]-L-leucyl-O-methyl-L-tyrosine, N-methylamide], the concentration for half-maximal inhibition (IC50) was 500 nM.
